Test system: HCV 1b_Huh-Luc/Neo-ET cell line (genotype 1b replicon in Huh 7 cells)
Assay: HCV replicon assay (luciferase readout)
Assay type: cell-based
Settings: Hepatitis C virus, HCV 1b replicon in Huh 7 cells, 72 h incubation, EC50 range class, read-out: Inhibition of HCV genotype 1b
Protocol: Biological activity of the compounds of the invention was determined using an HCV replicon assay. The HCV 1b_Huh-Luc/Neo-ET cell line persistently expressing a bicistronic genotype 1b replicon in Huh 7 cells was obtained from ReBLikon GMBH. This cell line was used to test compound inhibition using luciferase enzyme activity readout as a measurement of compound inhibition of replicon levels.
On Day 1 (the day after plating cells), each compound is added in triplicate to the cells. Plates are incubated for 72 h prior to determining luciferase levels. Enzyme activity was measured using a Bright-Glo Kit (cat. number E2620) manufactured by Promega Corporation. The following equation was used to generate a percent control value for each compound. % Control=(Compound Luciferase Level/Control Luciferase Level)*100
The EC50 value was determined using GraphPad Prism and the following equation: Y=Bottom asymptote+(Top asymptote-Bottom asymptote)/(1+10^((Log EC50−X)*HillSlope))
EC50 values of compounds are determined several times in the replicon assay to generate average EC50 values. […]

Question: `CC[C@H](C)[C@H](NC(=O)OC)C(=O)N1CCC[C@H]1c1ncc(-c2ccc3c(=O)c4cc(-c5cnc([C@@H]6COCCN6C(=O)[C@@H](NC(=O)OC)[C@@H](C)CC)[nH]5)ccc4oc3c2)[nH]1` [Compound 130] was tested. Which EC50 did it give?
Answer: < 1 nM

Question: With `COC(=O)N[C@H](C(=O)N1CCC[C@H]1c1ncc(-c2ccc3c(c2)Oc2ccc(-c4cnc([C@@H]5CCCN5C(=O)[C@@H](NC(=O)OC)C(C)C)[nH]4)cc2C32CC2)[nH]1)C(C)C` [Example 26] as the compound, how does the EC50 read?
Answer: < 1 nM

Question: Which EC50 does the source give for `CC(C)(C)OC(=O)N1CCC[C@H]1c1ncc(-c2ccc3c(=O)c4cc(-c5cnc([C@@H]6CCCN6C(=O)OC(C)(C)C)[nH]5)ccc4oc3c2)[nH]1` [Example 9] here?
Answer: 10 to 999 nM

Question: How did the EC50 turn out when `COC(=O)N[C@H](C(=O)N1CCCC[C@H]1c1ncc(-c2ccc3oc4cc(-c5cnc([C@@H]6CCCN6C(=O)[C@@H](NC(=O)OC)[C@@H](C)OC)[nH]5)ccc4c(=O)c3c2)[nH]1)[C@@H](C)OC` [Compound 140] was run?
Answer: < 1 nM

Question: Which EC50 does the source give for `COC(=O)N[C@H](C(=O)N[C@@H](C)c1ncc(-c2ccc3c(c2)Oc2ccc(-c4cnc([C@H](C)NC(=O)[C@@H](NC(=O)OC)C(C)C)[nH]4)cc2O3)[nH]1)C(C)C` [Compound 39] here?
Answer: < 1 nM

Question: With `CC[C@H](C)[C@H](NC(=O)OC)C(=O)N1CCC[C@H]1c1ncc(-c2ccc3oc4cc(-c5ccc6nc([C@@H]7CCCN7C(=O)[C@@H](NC(=O)OC)[C@@H](C)OC)[nH]c6c5)ccc4c(=O)c3c2)[nH]1` [Compound 145] as the compound, how does the EC50 read?
Answer: < 1 nM

Question: With `[2H]C([2H])([2H])C([2H])(C([2H])([2H])[2H])[C@]([2H])(NC(=O)OC)C(=O)N1CCC[C@H]1c1ncc(-c2ccc3c(c2)Oc2ccc(-c4cnc([C@@H]5CCCN5C(=O)[C@@]([2H])(NC(=O)OC)C([2H])(C([2H])([2H])[2H])C([2H])([2H])[2H])[nH]4)cc2O3)[nH]1` [Compound 57] as the compound, how does the EC50 read?
Answer: < 1 nM

Question: `COC(=O)N[C@H](C(=O)N1CCC[C@H]1c1ncc(-c2ccc3oc4cc(-c5cnc([C@@H]6CCCN6C(=O)[C@@H](NC(=O)OC)C6CCOCC6)[nH]5)c(Cl)cc4c(=O)c3c2)[nH]1)C1CCOCC1` [Compound 52] was tested. Which EC50 did it give?
Answer: < 1 nM

Question: `COC[C@H](NC(=O)OC)C(=O)N1CCC[C@H]1c1ncc(-c2ccc3c(c2)Cc2cc(F)c(-c4cnc([C@@H]5CCCN5C(=O)[C@@H](NC(=O)OC)[C@@H](C)OC)[nH]4)cc2O3)[nH]1` [Compound 43] was tested. Which EC50 did it give?
Answer: < 1 nM

Question: With `CC[C@H](C)[C@H](NC(=O)OC)C(=O)N1CSC[C@H]1c1ncc(-c2ccc3c(c2)Oc2ccc(-c4cnc([C@@H]5CSCN5C(=O)[C@@H](NC(=O)OC)[C@@H](C)CC)[nH]4)cc2O3)[nH]1` [Compound 67] as the compound, how does the EC50 read?
Answer: < 1 nM

Question: How did the EC50 turn out when `CC[C@H](C)[C@H](NC(=O)OC)C(=O)N1CCC[C@H]1c1ncc(-c2ccc3oc4cc(-c5cnc([C@@H]6CCCN6C(=O)[C@@H](NC(=O)OC)[C@@H](C)CC)[nH]5)c(Cl)cc4c(=O)c3c2)[nH]1` [Compound 51] was run?
Answer: < 1 nM

Question: `CC[C@H](C)[C@H](NC(=O)OC)C(=O)N1CCC[C@H]1c1ncc(-c2ccc3c(c2)Oc2ccc(-c4cnc([C@@H]5CCCN5C(=O)[C@@H](NC(=O)OC)[C@@H](C)CC)[nH]4)cc2C3(C)C)[nH]1` [Compound 70] was tested. Which EC50 did it give?
Answer: < 1 nM

Question: How did the EC50 turn out when `COC(=O)N[C@H](C(=O)N1CCC[C@H]1c1ncc(-c2cc3oc4ccc(-c5cnc([C@@H]6CCCN6C(=O)[C@@H](NC(=O)OC)C6CCOCC6)[nH]5)cc4c(=O)c3cc2F)[nH]1)C(C)C` [Example 28] was run?
Answer: < 1 nM

Question: For `COC(=O)N[C@H](C(=O)N1CCC[C@H]1c1ncc(-c2ccc3c(=O)c4cc(-c5cnc([C@@H]6CSCN6C(=O)[C@@H](NC(=O)OC)C(C)C)[nH]5)ccc4oc3c2)[nH]1)C(C)C` [Compound 122], which EC50 is on record?
Answer: < 1 nM

Question: How did the EC50 turn out when `COC(=O)N[C@H](C(=O)N1CCC[C@H]1c1nc2ccc(-c3ccc4c(=O)c5cc(-c6cnc([C@@H]7CCCN7C(=O)[C@@H](NC(=O)OC)[C@@H](C)OC)[nH]6)ccc5oc4c3)cc2[nH]1)C(C)C` [Compound 135] was run?
Answer: < 1 nM

Question: Which EC50 does the source give for `COC(=O)N[C@H](C(=O)N1CCC[C@H]1c1ncc(-c2ccc3c(c2)C(C)(C)c2ccc(-c4ccc5nc([C@@H]6CCCN6C(=O)[C@@H](NC(=O)OC)C6CCOCC6)[nH]c5c4)cc2O3)[nH]1)C1CCOCC1` [Compound 149] here?
Answer: < 1 nM

Question: `COC(=O)N[C@H](C(=O)N1CCC[C@H]1c1ncc(-c2ccc3oc4cc(-c5cnc([C@@H]6CCCN6C(=O)[C@@H](NC(=O)OC)C(C)C)[nH]5)c(C)cc4c(=O)c3c2)[nH]1)C(C)C` [Compound 126] was tested. Which EC50 did it give?
Answer: < 1 nM

Question: With `COC(=O)N[C@H](C(=O)N1CCC[C@H]1c1ncc(-c2cc3c(cc2F)Cc2cc(-c4cnc([C@@H]5CCCN5C(=O)[C@@H](NC(=O)OC)C5CCOCC5)[nH]4)ccc2O3)[nH]1)C(C)C` [Compound 44] as the compound, how does the EC50 read?
Answer: < 1 nM

Question: With `COC(=O)N[C@H](C(=O)N1CCC[C@H]1c1ncc(-c2ccc3c(c2)CCc2ccc(-c4cnc([C@@H]5CCCN5C(=O)[C@@H](NC(=O)OC)C(C)C)[nH]4)cc2O3)[nH]1)C(C)C` [Example 12] as the compound, how does the EC50 read?
Answer: < 1 nM

Question: How did the EC50 turn out when `COC(=O)N[C@@H](C(=O)N1CSC[C@H]1c1ncc(-c2ccc3c(=O)c4cc(-c5cnc([C@@H]6CSCN6C(=O)[C@H](NC(=O)OC)c6ccccc6)[nH]5)ccc4oc3c2)[nH]1)c1ccccc1` [Compound 129] was run?
Answer: < 1 nM

Question: `COC(=O)N[C@H](C(=O)N1CCCC[C@H]1c1ncc(-c2ccc3oc4cc(-c5cnc([C@@H]6CCCN6C(=O)[C@@H](NC(=O)OC)C(C)C)[nH]5)ccc4c(=O)c3c2)[nH]1)C(C)C` [Compound 141] was tested. Which EC50 did it give?
Answer: < 1 nM

Question: `COC(=O)N[C@H](C(=O)N1CCC[C@H]1c1ncc(-c2ccc3c(c2)Oc2ccc(-c4cnc([C@@H]5CCCN5C(=O)[C@@H](NC(=O)OC)C5CCOCC5)[nH]4)cc2C3(C)C)[nH]1)C1CCOCC1` [Compound 75] was tested. Which EC50 did it give?
Answer: < 1 nM

Question: How did the EC50 turn out when `CC[C@H](C)[C@H](NC(=O)OC)C(=O)N1CCC[C@H]1c1ncc(-c2ccc3c(=O)c4cc(-c5cnc([C@@H]6CCCN6C(=O)[C@@H](NC(=O)OC)[C@@H](C)CC)[nH]5)ccc4oc3c2)[nH]1` [Compound 138] was run?
Answer: < 1 nM

Question: How did the EC50 turn out when `COC(=O)N[C@H](C(=O)N1CSC[C@H]1c1ncc(-c2ccc3c(c2)Oc2ccc(-c4cnc([C@@H]5CSCN5C(=O)[C@@H](NC(=O)OC)C5CCCC5)[nH]4)cc2O3)[nH]1)C1CCCC1` [Compound 66] was run?
Answer: < 1 nM

Question: With `COC(=O)N[C@@H](C(=O)N1CCC[C@H]1c1ncc(-c2ccc3oc4cc(-c5cnc([C@@H]6CCCN6C(=O)[C@H](NC(=O)OC)c6ccccc6)[nH]5)c(Cl)cc4c(=O)c3c2)[nH]1)c1ccccc1` [Compound 58] as the compound, how does the EC50 read?
Answer: < 1 nM

Question: With `COC(=O)N[C@H](C(=O)N1CCC[C@H]1c1ncc(-c2ccc3c(c2)Cc2cc(Cl)c(-c4cnc([C@@H]5CCCN5C(=O)[C@@H](NC(=O)OC)[C@@H](C)OC)[nH]4)cc2O3)[nH]1)[C@@H](C)OC` [Compound 62] as the compound, how does the EC50 read?
Answer: < 1 nM

Question: Which EC50 does the source give for `CC[C@H](C)[C@H](NC(=O)OC)C(=O)N1CCC[C@H]1c1ncc(-c2ccc3c(c2)Cc2cc(F)c(-c4cnc([C@@H]5CCCN5C(=O)[C@@H](NC(=O)OC)[C@@H](C)OC)[nH]4)cc2O3)[nH]1` [Compound 41] here?
Answer: < 1 nM

Question: How did the EC50 turn out when `CC[C@H](C)[C@H](NC(=O)OC)C(=O)N1CCC[C@H]1c1ncc(-c2ccc3c(c2)Oc2ccc(-c4cnc([C@@H]5CCCN5C(=O)[C@@H](NC(=O)OC)[C@@H](C)CC)[nH]4)cc2O3)[nH]1` [Compound 46] was run?
Answer: < 1 nM

Question: `COC[C@H](NC(=O)OC)C(=O)N1CCC[C@H]1c1ncc(-c2ccc3c(c2)Cc2cc(F)c(-c4cnc([C@@H]5CCCN5C(=O)[C@@H](NC(=O)OC)C(C)C)[nH]4)cc2O3)[nH]1` [Compound 45] was tested. Which EC50 did it give?
Answer: < 1 nM

Question: With `COC(=O)N[C@H](C(=O)N1CCC[C@H]1c1ncc(-c2ccc3oc4cc(-c5cnc([C@@H]6CCCN6C(=O)[C@@H](NC(=O)OC)C(C)C)[nH]5)c(Cl)cc4c(=O)c3c2)[nH]1)C(C)C` [Compound 49] as the compound, how does the EC50 read?
Answer: < 1 nM

Question: For `COC(=O)N[C@H](C(=O)N1CCC[C@H]1c1ncc(-c2ccc3c(c2)CN(C)c2ccc(-c4cnc([C@@H]5CCCN5C(=O)[C@@H](NC(=O)OC)C(C)C)[nH]4)cc2CN3C)[nH]1)C(C)C` [Example 13], which EC50 is on record?
Answer: < 1 nM

Question: Which EC50 does the source give for `COC(=O)N[C@H](C(=O)N1CCC[C@H]1c1ncc(-c2ccc3oc4cc(-c5cnc([C@@H]6CCCN6C(=O)[C@@H](NC(=O)OC)[C@@H](C)OC)[nH]5)c(Cl)cc4c(=O)c3c2)[nH]1)[C@@H](C)OC` [Compound 50] here?
Answer: < 1 nM

Question: `CC[C@H](C)[C@H](NC(=O)OC)C(=O)N1CCC[C@H]1c1ncc(-c2cc3c(cc2F)Cc2cc(-c4cnc([C@@H]5CCCN5C(=O)[C@H](COC)NC(=O)OC)[nH]4)ccc2O3)[nH]1` [Compound 60] was tested. Which EC50 did it give?
Answer: < 1 nM

Question: For `COC(=O)N[C@H](C(=O)N1CSC[C@H]1c1ncc(-c2ccc3c(=O)c4cc(-c5cnc([C@@H]6CSCN6C(=O)[C@@H](NC(=O)OC)C(C)C)[nH]5)ccc4oc3c2)[nH]1)C(C)C` [Compound 128], which EC50 is on record?
Answer: < 1 nM

Question: How did the EC50 turn out when `COC(=O)N[C@H](C(=O)N1CCC[C@H]1c1ncc(-c2ccc3oc4cc(-c5cnc([C@@H]6CCCN6C(=O)[C@H](NC(=O)OC6CCOCC6)c6ccccc6)[nH]5)ccc4c(=O)c3c2)[nH]1)C(C)C` [Example 21] was run?
Answer: < 1 nM

Question: `COC(=O)N[C@H](C(=O)N1CCC[C@H]1c1ncc(-c2ccc3c(c2)Cc2cc(F)c(-c4cnc([C@@H]5CCCN5C(=O)[C@@H](NC(=O)OC)[C@@H](C)OC)[nH]4)cc2O3)[nH]1)C1CCOCC1` [Compound 42] was tested. Which EC50 did it give?
Answer: < 1 nM

Question: For `COC(=O)N[C@H](C(=O)N1CCC[C@H]1c1ncc(-c2cc3oc4ccc(-c5cnc([C@@H]6CCCN6C(=O)[C@H](NC(=O)OC)c6ccccc6)[nH]5)cc4c(=O)c3cc2F)[nH]1)C(C)C` [Example 27], which EC50 is on record?
Answer: < 1 nM

Question: For `COC(=O)N[C@H](C(=O)N1CCC[C@H]1c1ncc(-c2ccc3c(=O)c4cc(-c5cnc([C@@H]6COCCN6C(=O)[C@@H](NC(=O)OC)C(C)C)[nH]5)ccc4oc3c2)[nH]1)C(C)C` [Compound 142], which EC50 is on record?
Answer: < 1 nM

— patent US8999967B2, “Tricyclic fused ring inhibitors of hepatitis C” (Presidio Pharmaceuticals, Inc., priority 2010, dated 2015)
